Source: patent US10492491B2, “Insecticide composition including a synergistic agent” (priority 2015, dated 2019)
Like-named read-outs stand apart in the source and are kept apart here.

Experiments:
Type in all cases: cell-based, Periplaneta americana
[1] = test system: cockroach Dorsal Unpaired Median (DUM) neurons; details: for origin of the intracellular calcium concentration rise: with caffeine, omegaconotoxin, pirenzepine
[2] = test system: cockroach Dorsal Unpaired Median (DUM) neurons; assay: Whole-cell patch-clamp, current-clamp: DUM neuron spontaneous electrical activity; details: IR3535 at 10^-8 M; whole-cell configuration
Procedure: (§1) Experiments were carried out on cockroach Dorsal Unpaired Median (DUM) neurons. Cockroach neuronal preparations are commonly used as biomedical models for vertebrates and invertebrates and DUM neurons are, furthermore, electrophysiologically and pharmacologically well characterized since most of the biophysical and pharmacological properties of ionic currents and receptors underlying and modulating their spontaneous action potentials have been established by using the well-known patch-clamp technique.
Adult male cockroaches, Periplaneta americana (see FIG. 1), are taken from our laboratory colonies, which are maintained under standard conditions (29° C., photoperiod of 12 h light/12 h dark). Animals are immobilized dorsal-side up on a dissection dish. The dorsal cuticle, gut and some dorso-longitudinal muscles are removed to allow access to the ventral nerve cord. The abdominal nerve cord and its terminal abdominal ganglion (TAG), carefully dissected under a binocular microscope, are placed in normal saline. Animal care and handling procedures are in accordance with French institutional and national health guidelines. […]
Electrical activity and neonicotinoïd-induced inward currents are recorded using the patch clamp technique in the whole-cell recording configuration under current-clamp and voltage-clamp mode, respectively. […] Signals are recorded with an Axopatch 200A amplifier. […]

[3] = test system: cockroach Dorsal Unpaired Median (DUM) neurons; assay: Whole-cell patch-clamp, voltage-clamp: neonicotinoïd-induced inward currents; details: for inward current amplitude after pretreatment with low concentration of IR3535 (conclusion): DUM neurons pretreated with low concentration of IR3535; for induced inward current, insecticide alone (conclusion): act like agonists
Procedure: as §1
Adult male cockroaches, Periplaneta americana (see FIG. 1), are taken from our laboratory colonies, which are maintained under standard conditions (29° C., photoperiod of 12 h light/12 h dark). Animals are immobilized dorsal-side up on a dissection dish. The dorsal cuticle, gut and some dorso-longitudinal muscles are removed to allow access to the ventral nerve cord. The abdominal nerve cord and its terminal abdominal ganglion (TAG), carefully dissected under a binocular microscope, are placed in normal saline. Animal care and handling procedures are in accordance with French institutional and national health guidelines.
The ventral nerve cord and its terminal abdominal ganglion (TAG) are carefully dissected under a binocular microscope and placed in normal cockroach saline containing (in mM) 200 NaCl, 3.1 KCl, 5 CaCl2, 4 MgCl2, 50 sucrose, and 10 […] (HEPES); pH was adjusted to 7.4 with NaOH. Isolation of adult DUM neuron cell bodies are performed under sterile conditions using enzymatic digestion and mechanical dissociation of the median parts of the TAG as previously described in Lapied et al. (Ionic species involved in the electrical activity of single adult aminergic neurones isolated from sixth abdominal ganglion of cockroach Periplaneta americana J Exp Biol 144:535-49, 1989). The isolated neuron cell bodies are used for recordings 24 h after dissociation.
Electrical activity and neonicotinoïd-induced inward currents are recorded using the patch clamp technique in the whole-cell recording configuration under current-clamp and voltage-clamp mode, respectively. Patch-clamp electrodes are pulled from borosilicate glass capillary tubes (GC150T-10) using a P-97 model puller. Patch pipettes have resistances ranging from 1 to 1.2 MΩ when filled with internal pipette solution. The liquid junction potential between extracellular and intracellular solutions is always corrected before the formation of a giga Ohm seal (>3 GΩ). Signals are recorded with an Axopatch 200A amplifier. […] Under voltage-clamp conditions, DUM neuron somata are voltage-clamped at a steady state holding potential of −50 mV to measure the effects of thiamethoxam or thiacloprid applied alone and after pretreatment with IR3535® (10^−8 M). Experiments are carried out at room temperature.

[4] = thiamethoxam 10^-6 M, pretreated with IR3535 10^-8 M

Structure (SMILES): CCN(CC)C(=O)c1cccc(C)c1 [DEET, N,N-diethyl-3-methylbenzamide]
- ratio of emitted fluorescence (340 nm/380 nm), maximum value ([1]; DEET at 10^-7 M (maximum)): 0.7
- ratio of emitted fluorescence (340 nm/380 nm) ([1]; DEET between 3.10^-8 M and 3.10^-7 M): above 0.6
- effect on intracellular calcium concentration, low concentration range ([1]; DEET from 10^-9 M to 10^-7 M): elevation of the intracellular calcium concentration
- effect on intracellular calcium concentration, higher concentrations ([1]; DEET higher than 10^-7 M): important decrease of the intracellular calcium concentration
- concentration giving the maximum elevation of intracellular calcium concentration ([1]; DEET low concentration range): 10^−7 M

Structure (SMILES): CCCCN(CCC(=O)OCC)C(C)=O [IR3535®, 3-[N-Butyl-N-acetyl]-aminopropionic acid, ethyl ester]
- lower concentration which produces a significant elevation of intracellular calcium concentration ([1]; DUM neurons): 10^−8 M
- origin of the intracellular calcium concentration rise ([1]; IR3535 at 10^-8 M): extracellular calcium through plasma membrane voltage-dependent calcium channels via M1/M3 mAChR sub-type modulation
- effect on intracellular calcium concentration, zone I ([1]; IR3535 between 3.10^-9 M and 3.10^-8 M, bath application): transient increase of intracellular calcium concentration
- effect on intracellular calcium concentration, zone II ([1]; IR3535 from 10^-7 M to 3.10^-6 M): additional elevation of intracellular calcium concentration
- origin of the intracellular calcium concentration rise ([1]; higher concentrations of IR3535 (10^-5 M)): both extracellular calcium and calcium released from internal stores
- concentration giving the maximum of the zone I intracellular calcium increase ([1]; zone I (3.10^-9 M to 3.10^-8 M)): 10^−8 M
- concentration giving the maximum effect on intracellular calcium, zone III ([1]; zone III, very high concentration): 3.10^−5 M
- effect on membrane potential [2]: significant membrane depolarization
- effect on spontaneous action potential discharge frequency [2]: increase of the spontaneous action potential discharge frequency

Structure (SMILES): N#C/N=C1\SCCN1Cc1ccc(Cl)nc1 [thiacloprid]
- concentration giving the maximum increase of inward current amplitude after IR3535 pretreatment ([3]; DUM neuron pretreated with IR3535 10^-8 M): 10^−6 M
- inward current amplitude after pretreatment with low concentration of IR3535 (conclusion) [3]: more important
- induced inward current, insecticide alone (conclusion) ([3]; alone): inward current with a small amplitude
- concentration giving the maximum effect on inward current amplitude, applied alone ([3]; alone, holding potential -50 mV): 10^−3 M
- effect on inward current amplitude, applied alone ([3]; bath application alone, holding potential -50 mV): dose-dependent increase of the inward current amplitude
- effect on inward current amplitude at higher concentration after IR3535 pretreatment ([3]; thiacloprid 10^-5 M, pretreated with IR3535 10^-8 M): important decrease of the current amplitude

Structure (SMILES): CN1COCN(Cc2cnc(Cl)s2)/C1=N\[N+](=O)[O-] [thiamethoxam]
- induced inward current, applied alone ([3]; 10^-6 M alone, holding potential -50 mV, n=3-4): inward current with small amplitudes
- inward current amplitude after pretreatment with low concentration of IR3535 (conclusion) [3]: more important
- induced inward current, insecticide alone (conclusion) ([3]; alone): inward current with a small amplitude
- effect of IR3535 pretreatment on induced inward current amplitude [3, 4]: important increase of the thiamethoxam-induced inward current amplitude
- mean current amplitude after IR3535 pretreatment relative to applied alone [3, 4]: about 6 fold
